Species on record: Rattus norvegicus
Assay: DrugMatrix - Regimen: Daily Repeat
Assay type: toxicity, organism-based, Sprague-Dawley
Design: regimen Daily Repeat, gender Male, age 6-8 weeks
Conditions: in vivo, iv, vehicle 100 % SALINE; for ABSOLUTE BASOPHIL / ABSOLUTE EOSINOPHIL / ABSOLUTE LYMPHOCYTE / ABSOLUTE MONOCYTE / ABSOLUTE SEGMENTED NEUTROPHIL / BASOPHIL / EOSINOPHIL / ERYTHROCYTE COUNT / HEMATOCRIT / HEMOGLOBIN / LEUKOCYTE COUNT / LYMPHOCYTE / MEAN CORPUSCULAR HEMOGLOBIN / MEAN CORPUSCULAR HEMOGLOBIN CONCENTRATION / MEAN CORPUSCULAR VOLUME / MONOCYTE / NEUTROPHIL / NUCLEATED RED BLOOD CELLS / PLATELET COUNT: tissue Blood; for ALANINE AMINOTRANSFERASE / ALBUMIN / ALKALINE PHOSPHATASE / ASPARTATE AMINOTRANSFERASE / BLOOD UREA NITROGEN / CARBON DIOXIDE / CHLORIDE / CHOLESTEROL / CREATINE PHOSPHOKINASE / CREATININE / GLUCOSE / LACTATE DEHYDROGENASE / LIPASE / PHOSPHORUS / POTASSIUM / SODIUM / TOTAL BILIRUBIN / TOTAL PROTEIN / URIC ACID: tissue Plasma
[1] = 29 mg/kg, 120 h, dose level Low, time 5 day
[2] = 48 mg/kg, 72 h, dose level High, time 3 day
[3] = 48 mg/kg, 120 h, dose level High, time 5 day

C[n+]1ccccc1/C=N/O.[Cl-] [PRALIDOXIME CHLORIDE]
ABSOLUTE BASOPHIL [1]: 0 CELLS/uL | ABSOLUTE EOSINOPHIL [1]: 0 CELLS/uL | ABSOLUTE LYMPHOCYTE [1]: 11211.67 CELLS/uL | ABSOLUTE MONOCYTE [1]: 254 CELLS/uL | ABSOLUTE SEGMENTED NEUTROPHIL [1]: 1034.33 CELLS/uL | BASOPHIL [1]: 0% | EOSINOPHIL [1]: 0% | ERYTHROCYTE COUNT [1]: 5.41 x10E6/uL | HEMATOCRIT [1]: 34.03% | HEMOGLOBIN [1]: 12.57 G/DL | LEUKOCYTE COUNT [1]: 12.5 x10E3/uL | LYMPHOCYTE [1]: 89.67% | MEAN CORPUSCULAR HEMOGLOBIN [1]: 23.3 pg | MEAN CORPUSCULAR HEMOGLOBIN CONCENTRATION [1]: 36.97 G/DL | MEAN CORPUSCULAR VOLUME [1]: 63 fL | MONOCYTE [1]: 2% | NEUTROPHIL [1]: 8.33% | NUCLEATED RED BLOOD CELLS [1]: 0 /100WBC | PLATELET COUNT [1]: 1164.33 x10E3/uL | ALANINE AMINOTRANSFERASE [1]: 69.67 u/L | ALBUMIN [1]: 3.7 G/DL | ALKALINE PHOSPHATASE [1]: 366.67 u/L | ASPARTATE AMINOTRANSFERASE [1]: 95.33 u/L | BLOOD UREA NITROGEN [1]: 17.67 mg/dL | CARBON DIOXIDE [1]: 22.67 mmol/L | CHLORIDE [1]: 105 MEQ/L | CHOLESTEROL [1]: 58.67 mg/dL | CREATINE PHOSPHOKINASE [1]: 283.67 u/L | CREATININE [1]: 0.2 mg/dL | GLUCOSE [1]: 168.67 mg/dL | LACTATE DEHYDROGENASE [1]: 87.33 u/L | LIPASE [1]: 9 u/L | PHOSPHORUS [1]: 12.73 mg/dL | POTASSIUM [1]: 7.24 MEQ/L | SODIUM [1]: 145.2 MEQ/L | TOTAL BILIRUBIN [1]: 0.1 mg/dL | TOTAL PROTEIN [1]: 5.83 G/DL | URIC ACID [1]: 1.97 mg/dL | ABSOLUTE BASOPHIL [2]: 0 CELLS/uL | ABSOLUTE EOSINOPHIL [2]: 0 CELLS/uL | ABSOLUTE LYMPHOCYTE [2]: 13021.33 CELLS/uL | ABSOLUTE MONOCYTE [2]: 38.67 CELLS/uL | ABSOLUTE SEGMENTED NEUTROPHIL [2]: 1206.67 CELLS/uL | BASOPHIL [2]: 0% | EOSINOPHIL [2]: 0% | ERYTHROCYTE COUNT [2]: 5.54 x10E6/uL | HEMATOCRIT [2]: 36.53% | HEMOGLOBIN [2]: 13.53 G/DL | LEUKOCYTE COUNT [2]: 14.27 x10E3/uL | LYMPHOCYTE [2]: 91.33% | MEAN CORPUSCULAR HEMOGLOBIN [2]: 24.57 pg | MEAN CORPUSCULAR HEMOGLOBIN CONCENTRATION [2]: 37.03 G/DL | MEAN CORPUSCULAR VOLUME [2]: 66.2 fL | MONOCYTE [2]: 0.33% | NEUTROPHIL [2]: 8.33% | NUCLEATED RED BLOOD CELLS [2]: 0 /100WBC | PLATELET COUNT [2]: 1281.33 x10E3/uL | ALANINE AMINOTRANSFERASE [2]: 51.67 u/L | ALBUMIN [2]: 4.43 G/DL | ALKALINE PHOSPHATASE [2]: 377.33 u/L | ASPARTATE AMINOTRANSFERASE [2]: 70.67 u/L | BLOOD UREA NITROGEN [2]: 14.67 mg/dL | CARBON DIOXIDE [2]: 19.33 mmol/L | CHLORIDE [2]: 101.33 MEQ/L | CHOLESTEROL [2]: 73.67 mg/dL | CREATINE PHOSPHOKINASE [2]: 198.33 u/L | CREATININE [2]: 0.19 mg/dL | GLUCOSE [2]: 169.33 mg/dL | LACTATE DEHYDROGENASE [2]: 89.67 u/L | LIPASE [2]: 10 u/L | PHOSPHORUS [2]: 11.87 mg/dL | POTASSIUM [2]: 6 MEQ/L | SODIUM [2]: 146.3 MEQ/L | TOTAL BILIRUBIN [2]: 0.2 mg/dL | TOTAL PROTEIN [2]: 6.03 G/DL | URIC ACID [2]: 1.37 mg/dL | ABSOLUTE BASOPHIL [3]: 0 CELLS/uL | ABSOLUTE EOSINOPHIL [3]: 56 CELLS/uL | ABSOLUTE LYMPHOCYTE [3]: 13632 CELLS/uL | ABSOLUTE MONOCYTE [3]: 1059.33 CELLS/uL | ABSOLUTE SEGMENTED NEUTROPHIL [3]: 1786 CELLS/uL | BASOPHIL [3]: 0% | EOSINOPHIL [3]: 0.33% | ERYTHROCYTE COUNT [3]: 5.32 x10E6/uL | HEMATOCRIT [3]: 32.57% | HEMOGLOBIN [3]: 12.23 G/DL | LEUKOCYTE COUNT [3]: 16.53 x10E3/uL | LYMPHOCYTE [3]: 82.33% | MEAN CORPUSCULAR HEMOGLOBIN [3]: 23 pg | MEAN CORPUSCULAR HEMOGLOBIN CONCENTRATION [3]: 37.57 G/DL | MEAN CORPUSCULAR VOLUME [3]: 61.17 fL | MONOCYTE [3]: 6.33% | NEUTROPHIL [3]: 11% | NUCLEATED RED BLOOD CELLS [3]: 0 /100WBC | PLATELET COUNT [3]: 992.67 x10E3/uL | ALANINE AMINOTRANSFERASE [3]: 69 u/L | ALBUMIN [3]: 3.57 G/DL | ALKALINE PHOSPHATASE [3]: 386.67 u/L | ASPARTATE AMINOTRANSFERASE [3]: 113.33 u/L | BLOOD UREA NITROGEN [3]: 16 mg/dL | CARBON DIOXIDE [3]: 27 mmol/L | CHLORIDE [3]: 104.33 MEQ/L | CHOLESTEROL [3]: 62 mg/dL | CREATINE PHOSPHOKINASE [3]: 792 u/L | CREATININE [3]: 0.2 mg/dL | GLUCOSE [3]: 194 mg/dL | LACTATE DEHYDROGENASE [3]: 193.33 u/L | LIPASE [3]: 11.33 u/L | PHOSPHORUS [3]: 11.63 mg/dL | POTASSIUM [3]: 6.09 MEQ/L | SODIUM [3]: 144.97 MEQ/L | TOTAL BILIRUBIN [3]: 0.13 mg/dL | TOTAL PROTEIN [3]: 6.03 G/DL | URIC ACID [3]: 1.73 mg/dL
